Measured values from patent US9273033B2, “Substituted pyridone derivatives as PDE10 inhibitors” (Merck Sharp & Dohme Corp., priority 2012, dated 2016).

Biological target: human PDE10A2 (Homo sapiens (Human), UniProt Q9Y233)
Test: PDE10 fluorescence polarization (IMAP FP) inhibition assay
Assay type: biochemical
Details: human PDE10A2, FAM-labeled cAMP substrate, read-out: PDE10A Ki
Summary of the method: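 Cytoplasmic lysate of AD293 cells transiently expressing human PDE10A2 (diluted to ~20% substrate conversion) incubated 30 min at room temperature with 50 nM FAM-cAMP in Tris pH 7.2 buffer with MgCl2, DTT. Activity read by IMAP fluorescence polarization. 0% inhibition set with 1% DMSO, 100% with reference PDE10 inhibitor.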

human PDE10A2, sequence (Q9Y233 267-1055): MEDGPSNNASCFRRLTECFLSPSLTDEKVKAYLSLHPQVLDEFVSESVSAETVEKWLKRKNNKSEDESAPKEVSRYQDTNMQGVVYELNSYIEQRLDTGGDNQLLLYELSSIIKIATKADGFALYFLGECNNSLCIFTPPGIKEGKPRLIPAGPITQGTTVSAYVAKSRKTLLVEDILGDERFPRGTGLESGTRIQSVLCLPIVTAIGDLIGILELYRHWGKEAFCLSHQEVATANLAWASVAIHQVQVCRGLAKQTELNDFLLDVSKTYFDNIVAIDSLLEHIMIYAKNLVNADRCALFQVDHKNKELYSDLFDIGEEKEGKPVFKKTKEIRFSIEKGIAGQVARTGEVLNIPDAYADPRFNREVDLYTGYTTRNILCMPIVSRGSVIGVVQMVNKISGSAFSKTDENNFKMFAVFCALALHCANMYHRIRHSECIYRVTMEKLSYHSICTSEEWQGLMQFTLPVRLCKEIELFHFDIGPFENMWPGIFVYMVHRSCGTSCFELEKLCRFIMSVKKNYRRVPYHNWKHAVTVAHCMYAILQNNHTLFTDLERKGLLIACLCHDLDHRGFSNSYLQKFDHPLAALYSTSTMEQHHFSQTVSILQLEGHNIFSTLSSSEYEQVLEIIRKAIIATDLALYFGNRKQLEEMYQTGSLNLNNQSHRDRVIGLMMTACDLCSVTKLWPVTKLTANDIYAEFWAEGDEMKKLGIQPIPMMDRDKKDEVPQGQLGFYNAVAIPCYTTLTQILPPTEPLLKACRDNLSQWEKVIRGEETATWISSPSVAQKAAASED

Row | SMILES | Ki [nM]
1 | COc1ccc([C@H]2C[C@@H]2COc2nc(C)ncc2-c2cnn(C)c(=O)c2Cl)nc1 [Example 137, 4-chloro-5-(4-(((1S,2S)-2-(5-methoxypyridin-2-yl)cyclopropyl)methoxy)-2-methylpyrimidin-5-yl)-2-methylpyridazin-3(2H)-one] | 0.728
2 | COc1ccc([C@H]2C[C@@H]2COc2nc(C)ncc2-c2cc(=O)n(C)nc2OC)nc1 [Example 138, 6-methoxy-5-(4-(((1S,2S)-2-(5-methoxypyridin-2-yl)cyclopropyl)methoxy)-2-methylpyrimidin-5-yl)-2-methylpyridazin-3(2H)-one] | 2.16
3 | COc1ccc([C@H]2C[C@@H]2COc2nc(C)ncc2-c2cc(=O)n(C)nc2O)nc1 [Example 139, 6-hydroxy-5-(4-(((1S,2S)-2-(5-methoxypyridin-2-yl)cyclopropyl)methoxy)-2-methylpyrimidin-5-yl)-2-methylpyridazin-3(2H)-one] | 21.2
4 | Cc1ncc(-c2cc(=O)n(C)cn2)c(OC[C@H]2C[C@@H]2c2ccc3ccccc3n2)n1 [Example 140, 3-methyl-6-(2-methyl-4-(((1S,2S)-2-(quinolin-2-yl)cyclopropyl)methoxy)pyrimidin-5-yl)pyrimidin-4(3H)-one] | 0.228
5 | Cc1ccc([C@H]2C[C@@H]2COc2nc(C)ncc2-c2cc(=O)n(C)cn2)nc1 [Example 141, 3-methyl-6-(2-methyl-4-(((1S,2S)-2-(5-methylpyridin-2-yl)cyclopropyl)methoxy)pyrimidin-5-yl)pyrimidin-4(3H)-one] | 5.46
6 | COc1ccc([C@H]2C[C@@H]2COc2nc(C)ncc2-c2cc(=O)n(C)cn2)nc1 [Example 142, 6-(4-(((1S,2S)-2-(5-methoxypyridin-2-yl)cyclopropyl)methoxy)-2-methylpyrimidin-5-yl)-3-methylpyrimidin-4(3H)-one] | 6.04
